Measured values from patent publication US20040043432A1, “Compounds targeted to cellular locations” (priority 2000, published 2004).
“Also recorded” adds a separate entry of the source.

B1: APT632: soluble CD59 from human urine (u-hCD59, Seq. ID No. 1) thiolated with 2-iminothiolane and linked to APT542 (conjugate, listed as Homo sapiens)
chain: LQCYNCPNPTADCKTAVNCSSDFDACLITKAGLQVYNKCWKFEHCNFNDVTTRLRENELTYYCCKKDLCNFNEQLEN
modifications: thiolated with 2-iminothiolane, linked to APT542
B2: APT530: short consensus repeats 1,2,3 and 4 of human CD55 (DAF) with a carboxyl terminal cysteine, expressed in E. coli (SEQ ID No: 10) (protein)
chain: MQDCGLPPDVPNAQPALEGRTSFPEDTVITYKCEESFVKIPGEKDSVICLKGSQWSDIEEFCNRSCEVPTRLNSASLKQPYITQNYFPVGTVVEYECRPGYRREPSLSPKLTCLQNLKWSTAVEFCKKKSCPNPGEIRNGQIDVPGGILFGATISFSCNTGYKLFGSTSSFCLISGSSVQWSDPLPECREIYCPAPPQIDNGIIQGERDHYGYRQSVTYACNKGFTMIGEHSIYCTVNNDEGEWSGPPPECRGC
B3: APT2334: APT530 linked to a single molecule of APT542 (MSWP-1) (SEQ ID No: 11) (conjugate)
chain: MQDCGLPPDVPNAQPALEGRTSFPEDTVITYKCEESFVKIPGEKDSVICLKGSQWSDIEEFCNRSCEVPTRLNSASLKQPYITQNYFPVGTVVEYECRPGYRREPSLSPKLTCLQNLKWSTAVEFCKKKSCPNPGEIRNGQIDVPGGILFGATISFSCNTGYKLFGSTSSFCLISGSSVQWSDPLPECREIYCPAPPQIDNGIIQGERDHYGYRQSVTYACNKGFTMIGEHSIYCTVNNDEGEWSGPPPECRGCCDGPKKKKKKSPSKSSG
modifications: APT530 linked to APT542 (MSWP-1)

Legend:
[1] = tested on: lipid rafts on Raji cells; assay: fluorescence microscopy colocalisation with lipid raft markers; format: cell-based; conditions: 60 min at 37C, APT2104 with endogenous CD59, APT2105 and APT070 with FITC-CTB
Raji cells = assay: confocal microscopy of intracellular localization; format: cell-based; conditions: confocal microscope, added singly or with raft markers
Experimental: For confocal microscopy, cells were treated with a variety of compounds and antibodies as described above. The cells were fixed and mounted as described and visualised using an Axiophot microscope (Carl Zeiss) coupled to a Colour Coolview CCD colour camera. Filter settings for the simultaneous detection of red and green fluorescence were used. The digital images were processed using Photoshop software (Adobe Systems). Cell images were obtained that visualised either the surface of the cell or cell sections.
This example follows the same procedure as described in example 13 with the following modifications. In certain experiments, lipid raft targeted compounds were added to the cells either singly, or in combination with other compounds. The compounds were then visualized with fluorescent antibodies or in the case of APT2104 and APT2105 by their intrinsic fluorescence, in each case using a confocal microscope as described in methods.

[2] = tested on: classical pathway-mediated haemolysis of sheep erythrocytes; conditions: described in WO 98/02454; cited from earlier work
[3] = tested on: complement-mediated lysis of guinea pig erythrocytes by human serum; assay: C5b6-initiated reactive lysis of erythrocytes; format: cell-based; conditions: reactive lysis assay
Experimental: C56 euglobulin was an essential reagent that was used for the C5b6-initiated reactive lysis of erythrocytes. C56 euglobulin was generated in and purified from some acute-phase sera from post-trauma individuals (such as sports injuries, surgery or childbirth). Blood was drawn from donors in the acute phase of inflammation and allowed to clot at room temperature. To each 10 mls of serum, 0.5 mls of yeast suspension was added and the mixture incubated overnight on a rotator at room temperature. The serum was centrifuged to remove the yeast and dialysed against 0.02M Na/K phosphate, pH 5.4. The precipitate (containing the C56 euglobulin) was collected by centrifugation and redisolved in 0.01M Na/K phosphate/0.05M NaCl, pH7.0 containing 25% v/v glycerol.
Guinea pig erythrocytes (TCS Microbiological, UK) were washed twice in PBS and resuspended to 5% by volume in PBS/0.05% CHAPS. 50 microL of these cells were placed in the wells of a round-bottomed microtitre plate. Samples to be tested were diluted in PBS/0.05% CHAPS and 50 microL of these test solutions then added to the wells containing the guinea pig erythrocytes. The plate was then incubated at 37 degrees Celsius for 20 minutes to allow binding of the samples to the erythrocytes. […] 100 microL of the supernatant was transferred to a clear flat bottomed microtitre plate and the absorbance at 410 nm measured spectroscopically. […]

[4] = tested on: complement-mediated lysis by human serum; assay: haemolytic assay (1:400 dilution of human serum); format: cell-based; conditions: read-out: concentration required to bring about 50% inhibition of lysis (IH50)
From the text: APT530 is a protein that comprises the short consensus repeats 1,2,3 and 4 of human CD55 (decay accelerating factor, DAF), with a carboxyl terminal cysteine residue expressed in a recombinant form in E. coli cells. cDNA that encoded human DAF mRNA was generated from total brain RNA as described in Example 9. A plasmid to encode APT530 was generated by PCR using the pUC-DAF plasmid as template. Primers were designed to amplify the region of the DAF gene encoding amino acids 35-285 (SCR1-4). The 5′ primer incorporated an NdeI restriction enzyme site, and a codon specifying glutamine, thereby introducing an amino terminal methionine-glutamine amino acid pair. The 3′ primer added a carboxyl terminal cysteine residue and incorporated an EcoRI restriction enzyme site. The PCR product was cloned into the pUC57/T T-vector as described, sequenced, the insert excised with NdeI and EcoRI, and ligated into pET266 (Novagen, Madison, USA). The product of this ligation is the plasmid pET99-01, which expresses DAF (SCR1-4). pET99-01 DNA was introduced into E. coli HAMS113 (see methods) and expression of the recombinant protein induced as described in Example 1. The expression of APT530 was analysed by SDS-PAGE (described in methods). […] Refolded […] was analysed by SDSPAGE, Western blot and the effectiveness of the protein in a haemolytic assay (described in methods). […]

Row | Molecule | co-localisation with lipid raft markers (FITC-CTB / endogenous CD59) [1] | intracellular localization (intracellular fluorescence) (Raji cells) | IC50 [4] | further results
1 | APT070: residues 1-196 of CR1 ([SCR1-3]-Cys) derivatised with myristoyl cationic peptide MSWP-1; WO 98/02454 example 8 [reference compound] | co-localise; also recorded: discrete punctate pattern | intracellular fluorescence was seen | – | anti-complement activity, potency relative to [SCR1-3]-Cys [2]: 100-1000 fold
2 | N-Myristoyl-Gly-Ser-Ser-Lys-Ser-Pro-Ser-Lys-Lys-Lys-Lys-Lys-Lys-Pro-Gly-Glu-Cys(S-succinimido Alexafluor™488 C5)-NH2 [APT2104] | co-localise; also recorded: discrete punctate pattern | intracellular fluorescence was seen | – | –
3 | N-Myristoyl Gly-Ser-Ser-Lys-Ser-Pro-Ser-Lys-Lys-Lys-Lys-Lys-Lys-Pro-Gly-Glu-Cys(S-succinimido Alexafluor™546 C5)-NH2 [APT2105] | co-localise; also recorded: discrete punctate pattern | intracellular fluorescence was seen | – | –
4 | B1 | – | – | – | concentration at which guinea pig erythrocytes are protected from complement-mediated lysis by human serum [3]: greater than 0.5 nM
5 | B2 | – | – | ~40 nM | –
6 | B3 | – | – | 0.2 nM | –
